Patent US11732286B2, “T5 exonuclease-based method to identify DNA topoisomerase inhibitors” (The Florida International University Board of Trustees, priority 2020, dated 2023)
Entries after “also recorded” stand apart in the source; their conditions may differ. Structures can show the parent of a compound that is named as a salt. Where two headings read alike, the source gives them in different places. Where a SMILES comes first, the peptide text is derived from it. Bridges are numbered along the chain shown (N, C = ends). [ ]: non-standard residue; d: D form. The star is where a group is joined. Octanoyl(6-Me) = CCC(C)CCCCC(=O)*; Dab = NCC[CH](N)C(=O)O

Assays:
[1] = target: E. coli DNA topoisomerase I (Escherichia coli, UniProt P06612); assay type: biochemical; details: for screening result in words (E. coli topo I HTS): interpretation of Table 5 / FIG. 11
[2] = target: Mtb DNA topoisomerase I (Mycobacterium tuberculosis, UniProt P9WG49); assay type: biochemical; details: for screening result in words (Mtb topo I HTS): interpretation of Table 4
[3] = target: E. coli DNA gyrase (Escherichia coli, UniProt P0AES4+P0AES6); assay type: biochemical; details: for result in words, pathogen box screen for E. coli DNA gyrase: 400 compounds, several rounds of screening; for hit call, gyrase HTS (FIG. 7): 20 μM, triplicate, Z′ 0.64, S/B 4.3
[4] = target: variola virus DNA topoisomerase 1 (vTopI) (Variola virus, UniProt P32989); assay type: biochemical; details: for screening result in words (Variola topo I HTS): interpretation of Table 6
[5] = target: MtbTopI (Mycobacterium tuberculosis, UniProt P9WG49); assay: MtbTopI inhibition test of FIG. 14; assay type: biochemical
[6] = target: T1, human DNA topoisomerase I (HuTopI) (Homo sapiens, UniProt P11387); assay: Human TopI-catalyzed DNA relaxation of sc pAB1_FL905 (fluorescence, FIG. 14); assay type: biochemical; details: 25 nM huTopI, sc pAB1_FL905, λem=521 nm, λex=482 nm; read-out: IC50 for inhibition of HuTopI activities
T1 sequence (P11387 1-765): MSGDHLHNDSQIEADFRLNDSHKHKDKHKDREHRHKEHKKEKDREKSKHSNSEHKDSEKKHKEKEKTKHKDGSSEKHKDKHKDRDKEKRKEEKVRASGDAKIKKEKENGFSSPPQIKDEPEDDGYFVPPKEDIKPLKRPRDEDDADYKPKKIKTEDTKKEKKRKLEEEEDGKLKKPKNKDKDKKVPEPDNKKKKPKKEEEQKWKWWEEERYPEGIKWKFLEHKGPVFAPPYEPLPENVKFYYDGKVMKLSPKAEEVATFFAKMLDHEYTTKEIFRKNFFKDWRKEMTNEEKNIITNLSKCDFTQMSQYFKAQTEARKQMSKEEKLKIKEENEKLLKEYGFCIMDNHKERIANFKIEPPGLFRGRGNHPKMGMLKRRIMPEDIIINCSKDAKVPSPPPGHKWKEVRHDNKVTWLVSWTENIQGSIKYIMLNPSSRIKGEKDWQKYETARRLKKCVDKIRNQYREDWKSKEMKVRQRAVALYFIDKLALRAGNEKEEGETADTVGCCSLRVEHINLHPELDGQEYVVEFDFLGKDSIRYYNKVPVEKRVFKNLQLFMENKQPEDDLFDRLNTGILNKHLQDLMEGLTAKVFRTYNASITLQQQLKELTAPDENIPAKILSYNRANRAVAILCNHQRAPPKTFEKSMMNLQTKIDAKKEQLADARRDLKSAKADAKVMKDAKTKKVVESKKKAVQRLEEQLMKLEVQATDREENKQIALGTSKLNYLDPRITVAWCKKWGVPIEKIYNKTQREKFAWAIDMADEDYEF

[7] = system: supercoiled plasmid pAB1; assay: T5 exonuclease-based HTS assay for DNA intercalators (sc pAB1, no topoisomerase)

Chain of variola virus DNA topoisomerase 1 (vTopI) (P32989 whole entry, looked up): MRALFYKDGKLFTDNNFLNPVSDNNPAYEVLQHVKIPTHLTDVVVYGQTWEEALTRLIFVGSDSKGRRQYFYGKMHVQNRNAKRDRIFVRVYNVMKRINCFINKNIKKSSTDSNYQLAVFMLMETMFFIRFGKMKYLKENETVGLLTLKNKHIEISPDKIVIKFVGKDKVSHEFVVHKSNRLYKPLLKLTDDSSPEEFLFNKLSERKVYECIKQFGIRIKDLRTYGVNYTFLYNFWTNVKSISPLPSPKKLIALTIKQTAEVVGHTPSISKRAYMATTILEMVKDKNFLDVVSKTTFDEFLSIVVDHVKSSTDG
Chain of Mtb DNA topoisomerase I (P9WG49 whole entry): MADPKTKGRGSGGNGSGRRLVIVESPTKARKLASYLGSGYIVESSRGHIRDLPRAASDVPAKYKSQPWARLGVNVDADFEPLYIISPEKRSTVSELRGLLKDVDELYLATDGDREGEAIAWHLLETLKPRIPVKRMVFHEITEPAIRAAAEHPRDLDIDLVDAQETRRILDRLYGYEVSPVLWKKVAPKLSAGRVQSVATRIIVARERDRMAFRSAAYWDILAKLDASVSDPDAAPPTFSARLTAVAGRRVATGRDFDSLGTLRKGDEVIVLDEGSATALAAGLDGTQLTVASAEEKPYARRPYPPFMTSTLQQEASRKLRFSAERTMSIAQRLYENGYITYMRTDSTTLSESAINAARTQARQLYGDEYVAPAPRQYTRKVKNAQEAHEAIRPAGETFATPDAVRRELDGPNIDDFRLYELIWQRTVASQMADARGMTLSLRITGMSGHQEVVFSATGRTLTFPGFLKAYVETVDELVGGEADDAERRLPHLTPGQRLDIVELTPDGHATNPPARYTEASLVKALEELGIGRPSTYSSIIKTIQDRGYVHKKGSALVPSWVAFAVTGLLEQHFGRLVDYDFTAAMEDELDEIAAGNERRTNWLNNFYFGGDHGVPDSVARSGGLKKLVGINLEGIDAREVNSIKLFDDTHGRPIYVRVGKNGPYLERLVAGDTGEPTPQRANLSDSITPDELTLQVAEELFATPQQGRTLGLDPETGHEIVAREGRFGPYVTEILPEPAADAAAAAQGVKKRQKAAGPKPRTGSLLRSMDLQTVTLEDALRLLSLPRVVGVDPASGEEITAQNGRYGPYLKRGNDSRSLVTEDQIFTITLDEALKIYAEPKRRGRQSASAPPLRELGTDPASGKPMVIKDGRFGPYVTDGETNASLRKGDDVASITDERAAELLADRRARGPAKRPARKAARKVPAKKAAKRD
Chain of E. coli DNA gyrase (P0AES4 whole entry, one chain of several): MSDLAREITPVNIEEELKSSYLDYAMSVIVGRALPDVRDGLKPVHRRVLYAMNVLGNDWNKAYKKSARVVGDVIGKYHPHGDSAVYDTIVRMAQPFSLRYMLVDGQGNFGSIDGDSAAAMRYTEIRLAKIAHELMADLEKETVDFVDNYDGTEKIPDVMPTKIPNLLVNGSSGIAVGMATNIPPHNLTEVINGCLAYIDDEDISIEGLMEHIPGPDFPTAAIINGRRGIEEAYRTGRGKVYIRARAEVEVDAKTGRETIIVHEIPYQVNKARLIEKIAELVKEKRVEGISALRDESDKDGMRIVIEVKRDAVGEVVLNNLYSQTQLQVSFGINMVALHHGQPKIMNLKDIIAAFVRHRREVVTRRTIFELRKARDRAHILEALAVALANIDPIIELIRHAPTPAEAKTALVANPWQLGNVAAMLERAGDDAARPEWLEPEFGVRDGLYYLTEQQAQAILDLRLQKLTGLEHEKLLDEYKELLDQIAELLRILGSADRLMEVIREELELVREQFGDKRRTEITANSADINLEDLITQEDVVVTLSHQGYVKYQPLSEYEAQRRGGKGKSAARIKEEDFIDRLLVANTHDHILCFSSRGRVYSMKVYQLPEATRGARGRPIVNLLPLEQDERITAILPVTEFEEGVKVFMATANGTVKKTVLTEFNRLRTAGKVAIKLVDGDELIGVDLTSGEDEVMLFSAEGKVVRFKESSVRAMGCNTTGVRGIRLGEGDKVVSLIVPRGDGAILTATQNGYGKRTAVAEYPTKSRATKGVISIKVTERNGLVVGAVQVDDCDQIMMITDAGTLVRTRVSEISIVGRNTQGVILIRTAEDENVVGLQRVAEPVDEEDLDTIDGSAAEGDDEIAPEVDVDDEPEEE
Chain of E. coli DNA topoisomerase I (P06612 whole entry): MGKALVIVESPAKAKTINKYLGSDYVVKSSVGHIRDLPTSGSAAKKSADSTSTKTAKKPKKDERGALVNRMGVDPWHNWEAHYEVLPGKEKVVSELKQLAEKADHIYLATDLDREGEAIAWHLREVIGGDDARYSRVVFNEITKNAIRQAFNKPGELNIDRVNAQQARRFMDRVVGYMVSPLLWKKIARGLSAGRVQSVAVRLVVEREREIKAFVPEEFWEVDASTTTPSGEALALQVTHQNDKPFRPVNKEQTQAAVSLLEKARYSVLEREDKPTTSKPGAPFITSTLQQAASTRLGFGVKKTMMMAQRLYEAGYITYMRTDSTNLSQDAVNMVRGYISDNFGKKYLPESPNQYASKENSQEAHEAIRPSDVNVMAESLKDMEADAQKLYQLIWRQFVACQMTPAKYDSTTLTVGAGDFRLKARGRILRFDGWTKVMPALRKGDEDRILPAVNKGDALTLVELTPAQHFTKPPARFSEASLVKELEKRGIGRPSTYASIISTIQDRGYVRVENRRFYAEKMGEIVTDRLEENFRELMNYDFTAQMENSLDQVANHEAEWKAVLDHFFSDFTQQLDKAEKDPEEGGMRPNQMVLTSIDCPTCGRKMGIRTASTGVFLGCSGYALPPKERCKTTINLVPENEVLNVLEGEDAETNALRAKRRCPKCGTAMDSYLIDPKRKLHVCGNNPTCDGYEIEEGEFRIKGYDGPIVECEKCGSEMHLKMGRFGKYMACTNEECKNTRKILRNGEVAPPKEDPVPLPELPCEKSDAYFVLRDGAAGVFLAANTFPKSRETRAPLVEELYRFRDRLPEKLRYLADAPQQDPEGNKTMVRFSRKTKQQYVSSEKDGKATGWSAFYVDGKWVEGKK
Chain of MtbTopI (P9WG49 whole entry): as the sequence (P9WG49 whole entry) above

O=C(O)c1cn(C2CC2)c2cc(N3CCNCC3)c(F)cc2c1=O [Ciprofloxacin]
fluorescence, HTS screening of 50-compound library for E. coli DNA topoisomerase 1 inhibitors [1]: 1191
fluorescence, HTS screening of 50-compound library for Mtb DNA topoisomerase 1 inhibitors [2]: 1493
fluorescence, HTS screening of 50-compound library for E. coli DNA gyrase inhibitors [3]: 1803
screening result in words (Table 2, gyrase HTS) [3]: DNA intercalators

CCN1CCN(c2cc3c(cc2F)c(=O)c(C(=O)O)cn3C2CC2)CC1 [Enrofloxacin]
screening result in words (Table 2, gyrase HTS) ([3]; interpretation of Table 2): DNA intercalators
screening result in words (Variola topo I HTS) [4]: can inhibit Variola topo I

NCC(=O)O [Glycine]
fluorescence, HTS screening of 50-compound library for E. coli DNA topoisomerase 1 inhibitors [1]: 1589
fluorescence, HTS screening of 50-compound library for Mtb DNA topoisomerase 1 inhibitors [2]: 1321
fluorescence, HTS screening of 50-compound library for E. coli DNA gyrase inhibitors [3]: 644

NCCCC[C@H](N)C(=O)O [L-lysine]
fluorescence, HTS screening of 50-compound library (Table 6; vTopI) [4]: 1028

C[C@H]1COc2c(N3CCN(C)CC3)c(F)cc3c(=O)c(C(=O)O)cn1c23 [Levofloxacin]
screening result in words (Table 2, gyrase HTS) ([3]; interpretation of Table 2): DNA intercalators
result in words, pathogen box screen for E. coli DNA gyrase [3]: inhibit E. coli DNA gyrase activities

CCn1cc(C(=O)O)c(=O)c2cc(F)c(N3CCNC(C)C3)c(F)c21 (centres unmarked) [Lomefloxacin]
screening result in words (Table 2, gyrase HTS) ([3]; interpretation of Table 2): DNA intercalators

NC(N)=Nc1ccc(-c2ccc(-c3ccc(N=C(N)N)cc3Cl)o2)c(Cl)c1 [MMV688179]
result in words, pathogen box screen for E. coli DNA gyrase [3]: inhibit E. coli DNA gyrase activities

CCCCCCCCOC(=O)c1cc(O)c(O)c(O)c1 [NSC97419]
screening result in words (E. coli topo I HTS) [1]: can inhibit E. coli topo I
screening result in words (Mtb topo I HTS) [2]: new Mtb DNA topI inhibitors; also recorded: can inhibit Mtb topo I
screening result in words (Variola topo I HTS) [4]: can inhibit Variola topo I

O=C1C=C(NCCc2cc(Br)c(O)c(Br)c2)C(=O)c2ncccc21 [NSC668394]
screening result in words (E. coli topo I HTS) [1]: new E. coli DNA Topo I inhibitor; also recorded: can inhibit E. coli topo I
inhibition of MtbTopI in words (FIG. 14B and D) [5]: did not inhibit
screening result in words (Mtb topo I HTS) [2]: new Mtb DNA topI inhibitors; also recorded: can inhibit Mtb topo I
IC50 [6]: 5 µM

CCn1cc(C(=O)O)c(=O)c2cc(F)c(N3CCNCC3)cc21 [Norfloxacin]
screening result in words (Table 2, gyrase HTS) ([3]; interpretation of Table 2): DNA intercalators

CCC(C)CCCCC(=O)NC(CCN)C(=O)NC(C(=O)NC(CCN)C(=O)NC1CCNC(=O)C(C(C)O)NC(=O)C(CCN)NC(=O)C(CCN)NC(=O)C(CC(C)C)NC(=O)C(Cc2ccccc2)NC(=O)C(CCN)NC1=O)C(C)O (centres unmarked) [Polymyxin B sulfate salt] ({Octanoyl(6-Me)}-[Dab]T[Dab][Dab][Dab]FL[Dab][Dab]T; lactam 4-C; configuration not given here)
fluorescence, HTS screening of 50-compound library (Table 6; vTopI) [4]: 1744

CN[C@H](CC(C)C)C(=O)N[C@H]1C(=O)N[C@@H](CC(N)=O)C(=O)N[C@H]2C(=O)N[C@H]3C(=O)N[C@H](C(=O)N[C@H](C(=O)O)c4cc(O)cc(O)c4-c4cc3ccc4O)[C@H](O)c3ccc(c(Cl)c3)Oc3cc2cc(c3O[C@@H]2O[C@H](CO)[C@@H](O)[C@H](O)[C@H]2OC2C[C@](C)(N)[C@H](O)[C@H](C)O2)Oc2ccc(cc2Cl)[C@H]1O (some centres unmarked) [Vancomycin]
fluorescence, HTS screening of 50-compound library (Table 6; vTopI) [4]: 1398

Cc1ncc(C[n+]2csc(CCO)c2C)c(N)n1 [Vitamine B1]
fluorescence, HTS screening of 50-compound library for E. coli DNA topoisomerase 1 inhibitors [1]: 1441
fluorescence, HTS screening of 50-compound library for Mtb DNA topoisomerase 1 inhibitors [2]: 1224
fluorescence, HTS screening of 50-compound library for E. coli DNA gyrase inhibitors [3]: 467

CC[C@@]1(O)C(=O)OCc2c1cc1n(c2=O)Cc2cc3ccccc3nc2-1 [camptothecin]
fluorescence, HTS screening of 50-compound library (Table 6; vTopI) [4]: 1712

CS[C@H]1SC[C@H]2C(=O)N(C)[C@@H](C(C)C)C(=O)OC[C@@H](NC(=O)c3cnc4ccccc4n3)C(=O)N[C@@H](C)C(=O)N(C)[C@@H]1C(=O)N(C)[C@@H](C(C)C)C(=O)OC[C@@H](NC(=O)c1cnc3ccccc3n1)C(=O)N[C@@H](C)C(=O)N2C [echinomycin]
hit call, gyrase HTS (FIG. 7) [3]: hits
screening result in words (Table 2, gyrase HTS) ([3]; interpretation of Table 2): DNA intercalators
fluorescence, HTS screening of 50-compound library (Table 6; vTopI) [4]: 1238

CCOc1ccc2nc3cc(N)ccc3c(N)c2c1 [ethacridine]
hit call, gyrase HTS (FIG. 7) [3]: hits
screening result in words (Table 2, gyrase HTS) ([3]; interpretation of Table 2): DNA intercalators

NC[C@H]1O[C@H](O[C@H]2[C@H](O)[C@@H](O[C@H]3O[C@H](CO)[C@@H](O)[C@H](N)[C@H]3O)[C@H](N)C[C@@H]2N)[C@H](O)[C@@H](O)[C@@H]1O [kanamycin]
fluorescence, HTS screening of 50-compound library for E. coli DNA topoisomerase 1 inhibitors [1]: 1719
fluorescence, HTS screening of 50-compound library for Mtb DNA topoisomerase 1 inhibitors [2]: 1466
fluorescence, HTS screening of 50-compound library for E. coli DNA gyrase inhibitors [3]: 510

c1ccncc1 [pyridine]
fluorescence, HTS screening of 50-compound library for DNA intercalators [7]: 218
fluorescence, HTS screening of 50-compound library for E. coli DNA topoisomerase 1 inhibitors [1]: 1339
fluorescence, HTS screening of 50-compound library for Mtb DNA topoisomerase 1 inhibitors [2]: 1380
fluorescence, HTS screening of 50-compound library for E. coli DNA gyrase inhibitors [3]: 568

Nc1ccc(S(N)(=O)=O)cc1 [sulfanilamide]
fluorescence, HTS screening of 50-compound library for E. coli DNA topoisomerase 1 inhibitors [1]: 1426
fluorescence, HTS screening of 50-compound library for Mtb DNA topoisomerase 1 inhibitors [2]: 1523
fluorescence, HTS screening of 50-compound library for E. coli DNA gyrase inhibitors [3]: 558

Cc1ccc(C(=O)Nc2ccc(S(=O)(=O)O)c3cc(S(=O)(=O)O)cc(S(=O)(=O)O)c23)cc1NC(=O)c1cccc(NC(=O)Nc2cccc(C(=O)Nc3cc(C(=O)Nc4ccc(S(=O)(=O)O)c5cc(S(=O)(=O)O)cc(S(=O)(=O)O)c45)ccc3C)c2)c1 [suramin]
screening result in words (E. coli topo I HTS) [1]: can inhibit E. coli topo I
screening result in words (Mtb topo I HTS) [2]: can inhibit Mtb topo I
hit call, gyrase HTS (FIG. 7) [3]: hits
screening result in words (Table 2, gyrase HTS) ([3]; interpretation of Table 2): DNA intercalators
screening result in words (Variola topo I HTS) [4]: can inhibit Variola topo I

CC[C@@]1(O)C(=O)OCc2c1cc1n(c2=O)Cc2cc3c(CN(C)C)c(O)ccc3nc2-1 [topotecan]
screening result in words (Mtb topo I HTS) [2]: new Mtb DNA topI inhibitors; also recorded: can inhibit Mtb topo I

citrinin
fluorescence, HTS screening of 50-compound library (Table 6; vTopI) [4]: 1311
